One data set concerns the target T1, Cytochrome P450 1A2 (Homo sapiens, UniProt P05177).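 Further: PubChem cytochrome P450 panel assay, CYP1A2 panel member.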
T1 sequence (P05177 whole entry): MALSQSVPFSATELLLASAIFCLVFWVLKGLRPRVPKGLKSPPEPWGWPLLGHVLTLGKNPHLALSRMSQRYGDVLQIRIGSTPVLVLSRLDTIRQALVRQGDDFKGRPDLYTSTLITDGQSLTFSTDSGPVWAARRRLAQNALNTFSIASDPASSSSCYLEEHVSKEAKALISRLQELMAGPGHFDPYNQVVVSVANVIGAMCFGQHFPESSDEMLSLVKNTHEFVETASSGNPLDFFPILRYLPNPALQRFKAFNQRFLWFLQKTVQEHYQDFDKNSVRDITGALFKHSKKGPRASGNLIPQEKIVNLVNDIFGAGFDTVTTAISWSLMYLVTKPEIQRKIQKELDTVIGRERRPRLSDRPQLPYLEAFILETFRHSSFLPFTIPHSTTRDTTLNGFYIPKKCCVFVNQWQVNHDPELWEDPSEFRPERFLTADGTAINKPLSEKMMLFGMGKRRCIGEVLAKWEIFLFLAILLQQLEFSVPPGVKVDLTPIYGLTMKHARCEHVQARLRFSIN

The target of another data set is Cytochrome P450 2C19 (Homo sapiens, UniProt P33261). The data set can be described thus: Cytochrome panel assay with activity outcomes. Panel member name: p450-cyp2c19 Compounds with AC50 equal or less than 10 uM are considered active. Type of data set: functional. Particulars: read-out: AC50.
Chain of Cytochrome P450 2C19 (P33261 whole entry): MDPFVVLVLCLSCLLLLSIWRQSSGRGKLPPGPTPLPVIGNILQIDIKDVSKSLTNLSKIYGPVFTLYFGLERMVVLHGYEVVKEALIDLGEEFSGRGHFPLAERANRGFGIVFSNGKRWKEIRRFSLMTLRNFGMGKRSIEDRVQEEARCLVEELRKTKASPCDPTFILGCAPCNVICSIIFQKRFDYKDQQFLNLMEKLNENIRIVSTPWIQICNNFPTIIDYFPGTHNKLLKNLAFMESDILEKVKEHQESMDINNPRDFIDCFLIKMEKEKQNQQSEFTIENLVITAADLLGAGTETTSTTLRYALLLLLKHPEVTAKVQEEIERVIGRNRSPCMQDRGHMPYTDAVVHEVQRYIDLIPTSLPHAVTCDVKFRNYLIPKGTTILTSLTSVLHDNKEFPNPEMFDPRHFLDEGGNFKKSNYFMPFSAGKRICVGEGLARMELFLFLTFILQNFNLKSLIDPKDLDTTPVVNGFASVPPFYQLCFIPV
For data set [1], the target named is T2, Cytochrome P450 2C9 (Homo sapiens, UniProt P11712).
T2 sequence (P11712 whole entry): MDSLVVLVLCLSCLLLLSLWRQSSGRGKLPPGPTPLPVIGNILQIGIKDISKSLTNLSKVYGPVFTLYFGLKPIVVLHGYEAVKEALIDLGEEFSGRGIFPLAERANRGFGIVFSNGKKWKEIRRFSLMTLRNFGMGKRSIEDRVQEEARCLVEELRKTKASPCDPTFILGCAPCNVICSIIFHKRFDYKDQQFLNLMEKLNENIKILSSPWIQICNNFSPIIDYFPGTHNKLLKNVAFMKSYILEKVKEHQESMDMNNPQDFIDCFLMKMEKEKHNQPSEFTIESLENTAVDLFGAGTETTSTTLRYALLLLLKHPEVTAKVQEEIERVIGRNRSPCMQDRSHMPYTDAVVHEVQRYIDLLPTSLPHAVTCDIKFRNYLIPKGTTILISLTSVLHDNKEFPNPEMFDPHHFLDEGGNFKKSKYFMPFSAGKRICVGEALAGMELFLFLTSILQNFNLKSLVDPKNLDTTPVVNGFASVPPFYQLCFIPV
A further data set deals with Cytochrome P450 3A4 (Homo sapiens, UniProt P08684).
Chain of Cytochrome P450 3A4 (P08684 whole entry, the tested form may be a part): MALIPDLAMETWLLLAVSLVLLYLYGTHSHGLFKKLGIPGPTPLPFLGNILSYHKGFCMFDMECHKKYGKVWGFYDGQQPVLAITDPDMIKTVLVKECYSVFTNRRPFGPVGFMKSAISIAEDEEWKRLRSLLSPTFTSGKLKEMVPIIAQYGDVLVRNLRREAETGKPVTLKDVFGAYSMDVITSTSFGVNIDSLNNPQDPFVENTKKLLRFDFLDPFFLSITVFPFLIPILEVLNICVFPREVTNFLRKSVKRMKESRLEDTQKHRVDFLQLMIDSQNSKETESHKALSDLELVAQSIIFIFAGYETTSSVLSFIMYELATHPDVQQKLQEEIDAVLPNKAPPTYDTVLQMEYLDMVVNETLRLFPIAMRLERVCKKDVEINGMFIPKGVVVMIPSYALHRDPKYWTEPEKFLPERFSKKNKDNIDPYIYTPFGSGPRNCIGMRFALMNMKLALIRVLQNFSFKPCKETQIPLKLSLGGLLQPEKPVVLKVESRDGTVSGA
Data set [2] concerns the target T3, Fatty acid synthase (Homo sapiens, UniProt P49327). The data set can be described thus: FAS thioesterase domain inhibitors, dose response, biochemical, kinetic fluorescence intensity (AID 624326).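 Further: rate of fluorescence rise from hydrolysis of a fluorogenic O-methyl fluorescein ester substrate.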 Type of data set: functional.
The target in data set [3] is T3, Fatty acid synthase. The data set can be described thus: FAS thioesterase domain inhibitors, dose response, biochemical, endpoint fluorescence intensity, uHTS hits (AID 624327).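 Further: fluorescence from hydrolysis of an O-methyl fluorescein acyl ester substrate by the enzyme.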 In kind it is functional.
The nature of data set [4]: HepG2 cell cytotoxicity, dose response, cytotoxicity control for Shn3 inhibitor project, CellTiter-Glo, cherry-picked (AID 624134). Type of data set: functional, cell-based. For orientation: Cellular ATP, detected with luciferase, serves as a proxy for viable cell number.
The nature of data set [5]: Shn3 3'UTR reporter inhibitors, dose response, cell-based, Clone20 osteoblasts, firefly luciferase, cherry-picked (AID 624132).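 Further: firefly luciferase luminescence from reporter carrying the Shn3 3'UTR in osteoblasts.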 In kind it is functional.
Data set [6] can be described thus: Luminescence Cell-Based Dose Retest to Confirm Inhibitors of Cancer Stem Cells. [Related pubchem assays (depositor defined):AID2717, AID2721]. Particulars: Homo sapiens. In kind it is functional.
A short description of data set [7]: control 3'UTR Renilla luciferase suppression, dose response, counter-screen for Shn3 inhibitor project, cell-based, Clone20-Shn3RL, cherry-picked (AID 624133). Type of data set: functional. A general note: The purpose of a counterscreen is to sort out artefacts and off-target activity.
For data set [8], the target named is T4, Carboxy-terminal domain RNA polymerase II polypeptide A small phosphatase 1 (Homo sapiens, UniProt Q9GZU7).
T4 sequence (Q9GZU7 whole entry): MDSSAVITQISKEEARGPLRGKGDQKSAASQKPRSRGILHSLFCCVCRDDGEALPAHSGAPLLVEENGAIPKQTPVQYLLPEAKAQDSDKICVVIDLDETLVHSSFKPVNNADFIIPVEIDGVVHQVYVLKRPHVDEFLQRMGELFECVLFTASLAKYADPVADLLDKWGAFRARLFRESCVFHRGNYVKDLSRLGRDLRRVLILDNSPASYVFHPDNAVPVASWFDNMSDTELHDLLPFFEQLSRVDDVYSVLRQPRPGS
The data set can be described thus: inhibitors of CTDSP1, concentration-response testing, biochemical assay, absorbance-based, actives from ultra-high-throughput screening (AID 540297). In kind it is functional.

Data set [9] addresses T2, Cytochrome P450 2C9. The source holds these as a separate data set.
Data set [10] is described as follows: microbe, parasite or virus in culture. In kind it is functional. Conditions: Mycobacterium tuberculosis.
The target in the next data set is Cytochrome P450 2D6 (Homo sapiens, UniProt P10635).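 Further: CYP2D6 member of a cytochrome P450 panel assay.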
A further data set deals with Genome polyprotein (dengue virus type 2, UniProt P29990). The data set can be described thus: Dengue-2 NS5 methyltransferase inhibitors, primary screen, biochemical, confirmation dose response (AID 588689). Type of data set: functional.
Chain of Genome polyprotein (P29990 2492-3391 limits assumed): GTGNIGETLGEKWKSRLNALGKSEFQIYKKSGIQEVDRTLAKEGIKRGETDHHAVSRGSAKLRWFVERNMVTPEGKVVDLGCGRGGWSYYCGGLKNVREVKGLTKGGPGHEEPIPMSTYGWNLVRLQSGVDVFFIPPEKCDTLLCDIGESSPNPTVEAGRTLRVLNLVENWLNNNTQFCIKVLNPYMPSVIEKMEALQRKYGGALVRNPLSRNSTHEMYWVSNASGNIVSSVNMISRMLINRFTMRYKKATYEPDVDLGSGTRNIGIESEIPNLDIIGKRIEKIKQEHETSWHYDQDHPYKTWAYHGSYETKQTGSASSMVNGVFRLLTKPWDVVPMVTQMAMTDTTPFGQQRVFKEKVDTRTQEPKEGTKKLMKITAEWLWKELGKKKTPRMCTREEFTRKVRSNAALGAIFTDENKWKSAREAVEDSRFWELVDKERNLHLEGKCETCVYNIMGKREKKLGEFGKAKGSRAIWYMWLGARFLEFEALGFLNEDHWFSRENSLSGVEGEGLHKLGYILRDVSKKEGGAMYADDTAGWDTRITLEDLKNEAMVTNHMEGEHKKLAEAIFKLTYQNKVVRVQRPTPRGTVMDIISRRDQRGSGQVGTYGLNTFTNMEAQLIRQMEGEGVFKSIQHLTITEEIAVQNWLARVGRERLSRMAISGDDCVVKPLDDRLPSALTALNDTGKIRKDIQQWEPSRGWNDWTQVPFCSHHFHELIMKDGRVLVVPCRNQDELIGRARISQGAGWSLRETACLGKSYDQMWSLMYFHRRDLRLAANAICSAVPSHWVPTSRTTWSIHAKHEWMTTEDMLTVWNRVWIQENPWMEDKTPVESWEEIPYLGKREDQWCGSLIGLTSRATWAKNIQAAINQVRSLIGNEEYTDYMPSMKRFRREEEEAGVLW
The subject of data set [11] is Streptococcus sp. 'group A'. The data set can be described thus: growth inhibition of control SK(-) GAS strain, dose response, counter-screen for streptokinase expression inhibitor project, luminescence, kanamycin, BacTiterGlo, confirmation (AID 1900). In kind it is functional, organism-based.
For another data set, the target named is T5, Streptokinase A (Streptococcus pyogenes serotype M1, UniProt P10520).
T5 sequence (P10520 whole entry): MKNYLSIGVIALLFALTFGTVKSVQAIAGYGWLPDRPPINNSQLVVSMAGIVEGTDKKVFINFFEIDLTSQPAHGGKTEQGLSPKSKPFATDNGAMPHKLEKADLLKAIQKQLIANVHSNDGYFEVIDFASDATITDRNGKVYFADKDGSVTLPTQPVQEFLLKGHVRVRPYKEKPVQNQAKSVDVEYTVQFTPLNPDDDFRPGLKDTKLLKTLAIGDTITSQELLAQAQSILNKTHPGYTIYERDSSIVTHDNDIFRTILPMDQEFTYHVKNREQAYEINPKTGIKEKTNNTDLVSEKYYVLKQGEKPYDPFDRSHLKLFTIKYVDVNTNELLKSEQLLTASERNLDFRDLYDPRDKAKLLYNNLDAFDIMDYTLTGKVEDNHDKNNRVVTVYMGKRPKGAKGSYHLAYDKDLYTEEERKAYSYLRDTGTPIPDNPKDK
Briefly: S. pyogenes streptokinase expression inhibitors, potency, dose response, plasminogen activation absorbance, OD405 (AID 1914).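 Further: secreted streptokinase activity via plasminogen activation per viability signal from cell pellet.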 In kind it is functional, Streptococcus pyogenes M1 GAS.

Data set [12] is described as follows: inhibitors of intracellular T. cruzi replication, confirmation, NIH3T3 host cells, beta-gal luminescence (AID 2044).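 Further: intracellular parasites grown in NIH/3T3 mouse fibroblasts as host cells; luminescent beta-galactosidase reporter signal from transgenic T. cruzi replicating inside host cells; inhibitors lower the luminescence signal.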 Type of data set: functional, cell-based.
The nature of data set [13]: cytotoxicity toward NIH3T3 fibroblasts, dose response, counter-screen, cell-based, ATP luminescence, mouse fibroblasts (AID 2010).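 Further: cells exposed to compound for about 90 hours before reading.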 Type of data set: functional.
A further data set relates to Streptococcus. The data set can be described thus: Group A Streptococcus viability loss, dose response, counter-screen for streptokinase expression inhibitor project, luminescence, BacTiterGlo (AID 1915).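 Further: potency for reduction of bacterial viability or growth.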 In kind it is functional, organism-based.

Active and inactive are the calls of the source.

30 compounds from ChEMBL document CHEMBL1201862, “PubChem BioAssay data set” (2004) can be followed below.

T3 sequence (P49327 whole entry, the tested form may be a part): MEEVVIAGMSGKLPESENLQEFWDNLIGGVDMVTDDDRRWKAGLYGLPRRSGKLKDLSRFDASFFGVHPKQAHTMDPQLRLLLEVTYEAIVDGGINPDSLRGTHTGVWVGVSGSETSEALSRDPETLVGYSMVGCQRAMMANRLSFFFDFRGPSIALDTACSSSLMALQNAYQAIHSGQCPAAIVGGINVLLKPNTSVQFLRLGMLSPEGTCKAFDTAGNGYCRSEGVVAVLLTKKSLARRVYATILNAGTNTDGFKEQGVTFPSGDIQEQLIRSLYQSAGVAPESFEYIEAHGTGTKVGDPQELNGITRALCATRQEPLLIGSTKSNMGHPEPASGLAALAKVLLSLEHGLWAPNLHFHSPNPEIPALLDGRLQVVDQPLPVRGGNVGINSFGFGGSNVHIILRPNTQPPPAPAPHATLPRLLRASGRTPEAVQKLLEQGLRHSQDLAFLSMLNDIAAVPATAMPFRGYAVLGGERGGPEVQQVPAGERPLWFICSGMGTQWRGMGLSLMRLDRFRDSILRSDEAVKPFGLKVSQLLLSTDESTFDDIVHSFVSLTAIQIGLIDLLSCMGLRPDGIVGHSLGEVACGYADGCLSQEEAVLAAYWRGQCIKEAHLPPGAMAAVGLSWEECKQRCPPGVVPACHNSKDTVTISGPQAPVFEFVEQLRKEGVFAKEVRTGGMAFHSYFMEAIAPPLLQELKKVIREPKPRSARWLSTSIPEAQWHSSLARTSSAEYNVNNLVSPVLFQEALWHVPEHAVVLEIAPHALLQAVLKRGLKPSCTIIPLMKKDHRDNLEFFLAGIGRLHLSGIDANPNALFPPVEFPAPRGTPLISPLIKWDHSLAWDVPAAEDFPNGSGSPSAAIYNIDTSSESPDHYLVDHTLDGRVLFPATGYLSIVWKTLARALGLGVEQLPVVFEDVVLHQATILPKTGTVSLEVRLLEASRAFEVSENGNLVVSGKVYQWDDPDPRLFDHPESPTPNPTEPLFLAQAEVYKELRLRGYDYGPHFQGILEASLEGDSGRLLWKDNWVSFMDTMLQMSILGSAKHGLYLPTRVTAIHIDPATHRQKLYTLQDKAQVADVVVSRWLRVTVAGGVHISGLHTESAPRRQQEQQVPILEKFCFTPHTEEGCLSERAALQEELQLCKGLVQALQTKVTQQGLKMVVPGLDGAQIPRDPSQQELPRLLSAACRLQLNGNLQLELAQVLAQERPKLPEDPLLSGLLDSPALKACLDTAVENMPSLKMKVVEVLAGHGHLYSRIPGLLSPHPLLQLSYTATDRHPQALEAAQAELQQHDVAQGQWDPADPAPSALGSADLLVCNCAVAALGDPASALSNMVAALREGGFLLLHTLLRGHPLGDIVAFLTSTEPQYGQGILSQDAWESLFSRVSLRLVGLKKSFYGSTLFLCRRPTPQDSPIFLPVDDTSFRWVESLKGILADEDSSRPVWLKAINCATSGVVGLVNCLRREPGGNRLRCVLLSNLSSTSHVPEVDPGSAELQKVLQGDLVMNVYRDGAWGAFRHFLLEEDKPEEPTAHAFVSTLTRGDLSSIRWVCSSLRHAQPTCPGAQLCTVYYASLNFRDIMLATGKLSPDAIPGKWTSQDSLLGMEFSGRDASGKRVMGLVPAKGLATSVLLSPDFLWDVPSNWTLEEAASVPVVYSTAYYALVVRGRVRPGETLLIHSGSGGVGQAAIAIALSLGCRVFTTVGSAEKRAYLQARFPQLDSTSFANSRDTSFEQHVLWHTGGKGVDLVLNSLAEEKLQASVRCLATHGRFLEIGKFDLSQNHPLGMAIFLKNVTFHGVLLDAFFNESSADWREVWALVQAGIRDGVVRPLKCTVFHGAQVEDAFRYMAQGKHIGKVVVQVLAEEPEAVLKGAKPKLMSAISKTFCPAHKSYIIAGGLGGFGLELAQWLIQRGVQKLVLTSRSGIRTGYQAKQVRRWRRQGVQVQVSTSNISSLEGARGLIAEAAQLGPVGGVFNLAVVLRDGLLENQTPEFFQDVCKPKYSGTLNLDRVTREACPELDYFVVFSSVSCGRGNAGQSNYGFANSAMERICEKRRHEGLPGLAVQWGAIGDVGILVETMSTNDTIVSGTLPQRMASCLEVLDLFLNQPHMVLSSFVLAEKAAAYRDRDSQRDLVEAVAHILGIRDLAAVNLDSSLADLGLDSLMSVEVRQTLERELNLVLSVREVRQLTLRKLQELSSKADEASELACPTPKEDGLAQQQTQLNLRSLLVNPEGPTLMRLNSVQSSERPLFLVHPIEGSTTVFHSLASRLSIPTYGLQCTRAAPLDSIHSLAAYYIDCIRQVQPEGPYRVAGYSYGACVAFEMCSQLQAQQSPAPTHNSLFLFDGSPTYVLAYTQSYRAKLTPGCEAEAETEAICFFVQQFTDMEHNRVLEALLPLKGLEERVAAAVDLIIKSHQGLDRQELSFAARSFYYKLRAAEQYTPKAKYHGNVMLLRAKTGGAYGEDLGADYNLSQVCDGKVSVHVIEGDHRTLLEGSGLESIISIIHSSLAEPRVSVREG

As usually defined, the AC50 is the concentration at which the activity in the assay is half-maximal. `CCCCCCCC/C=C\CCCCCCCC(=O)N[C@@H](CO)Cc1ccc(O)cc1`: the values for the half-maximal activity concentration (AC50) on Cytochrome P450 1A2, on Cytochrome P450 2C19 and on Cytochrome P450 2C9 [1] were 25.1 µM (inconclusive), 31.6 µM (inconclusive) and “inconclusive”, respectively.
With `O=c1cnc2cnc(N3CCOCC3)nc2n1C[C@H]1CCCO1`, the concentration at half-maximal activity (AC50) entry at Cytochrome P450 2C9 [1] was “inconclusive”; at Cytochrome P450 3A4 it was 15.8 µM (inconclusive).
The IC50 is the concentration needed to halve the response being measured. On to `CCn1c(C)c(C(C)=O)c(N2CCN(C(c3ccccc3)c3ccccc3)CC2)nc1=S`, for which the results for the IC50 on Fatty acid synthase [2] and on Fatty acid synthase [3] were 23.1 µM (inactive) and 8.43 µM (active), respectively.
`CC(C)C[C@@H](CO)N(Cc1ccccc1)S(=O)(=O)N(Cc1ccccc1)[C@@H](CO)CC(C)C`: the concentration at half-maximal activity (AC50) in data set [4] was 21.9 µM (active); in data set [5], 11.4 µM (active); in data set [6] it was 4.21 µM (active); in data set [7] it was 31 µM (active).
In the case of `O=C(CN1C(=O)NC2(CCCC2)C1=O)OCc1cc(=O)n2cc(Br)ccc2n1`, in data set [8], the IC50 was 6.81 µM (active).
As to `O=C1Nc2cc(Cl)c(Cl)cc2N(O)N1c1ccc(Cl)c(Cl)c1`, the figures for the IC50 on Fatty acid synthase [2] and at Fatty acid synthase [3] were 12 µM (active) and 6.59 µM (active), respectively. For the same compound, the AC50 on Cytochrome P450 2C19 is 28.2 µM (inconclusive); on Cytochrome P450 3A4 it was 39.8 µM (inconclusive); on Cytochrome P450 2C9 [9], 3.98 µM (inconclusive).
As to `CCNc1nc(NCC)n2c(SCC(=O)Nc3ccc(F)cc3)nnc2n1`, in data set [8], the IC50 is 10.3 µM (active).
On to `Clc1ccc(CNc2nc(CN3CCOCC3)nc3scc(-c4ccccc4)c23)cc1`, for which the CC50 in [10] was > 40 µM (active).
On to `Cc1cc(=O)oc2cc(NC(=O)c3cccc(F)c3)ccc12`, for which the IC50 in [8] is 4.51 µM (active).
With `C=CCOc1ccc(CNC(C)(C)CO)cc1OCC.Cl`, the AC50 entry at Cytochrome P450 2C9 [1] is listed as “inconclusive”.
In the case of `O=C(Cc1ccccc1[N+](=O)[O-])NCc1ccccc1Cl`, the AC50 at Cytochrome P450 2D6 was 15.8 µM (inconclusive); on Cytochrome P450 2C9 [1], “inconclusive”; on Cytochrome P450 3A4, 15.8 µM (inconclusive).
Regarding `C#CCOc1ccccc1/C=C1/C(=O)ON=C1C`, on Genome polyprotein, the IC50 was > 100 µM (active).
Take `COC(=O)CCC(=O)NNC(=O)CCCOc1ccc(Cl)cc1Cl`: the AC50 is 3.55 µM (inconclusive) on Cytochrome P450 2C19, “inconclusive” on Cytochrome P450 2C9 [1] and 15.8 µM (inconclusive) at Cytochrome P450 3A4.
Regarding `Cc1cccc(COCC(CC(C)C)N2CCN(C(=O)c3ccc(C(C)(C)C)cc3)CCC2=O)c1` (stereo not given), the results for the IC50 on Fatty acid synthase [2] and at Fatty acid synthase [3] were 6.11 µM (active) and 8.21 µM (active), respectively.
The term EC50 denotes the concentration giving half of the maximal effect. On to `Cc1cccc(NC(=O)c2[nH]cnc2C(=O)N[C@@H](CCCCNC(=O)OC(C)(C)C)C(=O)OC(C)(C)C)c1`, for which the 50% inhibitory concentration (IC50) at Fatty acid synthase [2] is 0.658 µM (active); at Fatty acid synthase [3] it was 1.12 µM (active). Also, the concentration for a half-maximal effect (EC50) is 3.46 µM (active) in [11]; > 150 µM (not active) at Streptokinase A; 2.44 µM (active) in [12]; > 60 µM (not active) in data set [13]; 8.6 µM (active) in the data set on Streptococcus.
Regarding `COc1ccc(C2=NN(C(=O)CSc3nc(=O)n4cc(C)ccc4n3)C(c3ccc(C)cc3)C2)cc1` (stereo not given), the 50% inhibitory concentration (IC50) was 12.9 µM (active) on Fatty acid synthase [2] and 19.2 µM (active) at Fatty acid synthase [3].
For `Cc1cc(C(=O)CSc2nc(N)cc(O)n2)c(C)n1-c1cccc(F)c1`, the AC50 in [4] is > 70 µM (inactive); in [5], 1.66 µM (active); in data set [7] it was 26.2 µM (active).
On to `NP(=O)(Oc1ccccc1Cl)Oc1ccccc1Cl`, for which the figures for the half-maximal inhibitory concentration (IC50) on Fatty acid synthase [2] and on Fatty acid synthase [3] were 8.31 µM (active) and 5.09 µM (active), respectively.
For the compound `Cc1cc(C)cc(-n2nnnc2SCC(=O)Nc2nc(-c3ccc(F)cc3)cs2)c1`, the half-maximal activity concentration (AC50) is 3.16 µM (inconclusive) at Cytochrome P450 1A2, 5.01 µM (inconclusive) at Cytochrome P450 2C19 and “inconclusive” at Cytochrome P450 2C9 [1].
Regarding `O=C(O)CC(NC(=O)CC(c1ccccc1)c1ccccc1)c1cccc([N+](=O)[O-])c1` (stereo not given), the values for the IC50 on Fatty acid synthase [2] and on Fatty acid synthase [3] were 9.88 µM (active) and 7.88 µM (active), respectively.
In the case of `COc1ccc(N2COC3c4cccc5cccc(c45)C32)cc1` (stereo not given), the CC50 in data set [10] is > 40 µM (active).
For the compound `Cc1ccc(OC(=O)c2oc3ccc(F)cc3c2C)c(C)c1`, the AC50 on Cytochrome P450 2C19 was 11.2 µM (inconclusive); on Cytochrome P450 3A4 it was 39.8 µM (inconclusive); at Cytochrome P450 2C9 [9] it was 10 µM (inconclusive). In data set [10], the CC50 was 3.94 µM (active).
With `CN(C)Cc1ccccc1-c1cc(NC2CC2)ncn1`, on Cytochrome P450 2C9 [1], the half-maximal activity concentration (AC50) entry is given as “inconclusive”.
Regarding `c1ccc(CN=C(NCc2ccccc2)NCc2ccccc2)cc1`, the AC50 was 21.9 µM (active) in data set [4], 1.79 µM (active) in data set [5] and 2.06 µM (active) in data set [7].
`COc1ccc(S(=O)(=O)N2CCC(C(=O)NCC3CCCO3)CC2)cc1C` (stereo not given): the results for the AC50 result at Cytochrome P450 2C9 [1] and at Cytochrome P450 3A4 were “inconclusive” and 15.8 µM (inconclusive), respectively.
On to `Cc1cc(O)c2c(c1)C(=O)[C@@]13Oc4c5c(c(O)c6c(O)cc(C)cc46)C(=O)C[C@H](O)[C@H]5[C@@H]1[C@@H](O)CC(=O)C3=C2O`, for which, at Genome polyprotein, the IC50 is 16.7 µM (active).
As to `CC(C)c1ccc(NC(=O)Nc2nc(C(N)CCc3ccccc3)cs2)cc1` (stereo not given), the concentration at half-maximal activity (AC50) in [4] is 10.6 µM (active); in data set [5] it was 5.36 µM (active); in data set [7], 10.3 µM (active).
`O=C(Nc1ccccc1[N+](=O)[O-])OCC=Cc1ccccc1`: the IC50 at Fatty acid synthase [2] is 6.3 µM (active); at Fatty acid synthase [3] it was 8.17 µM (active).
Consider `COC(=O)c1ccc(/C=N/NC(=O)c2cccc(F)c2)cc1`, for which the IC50 in data set [8] was 11.4 µM (active).
For the compound `CC(C)c1ccc2c(c1)c(SC(C)(C)C)c(CC(C)(C)C(=O)O)n2Cc1ccc(Cl)cc1`, the figures for the IC50 on Fatty acid synthase [2] and on Fatty acid synthase [3] were 8.48 µM (active) and 10.1 µM (active), respectively. The AC50 in [6] is 1.58 µM (active).
